# From ChEMBL document CHEMBL1128124, “Inhibitors of acyl-CoA: Cholesterol O-acyl transferase (ACAT) as hypocholesterolemic agents. 13. Design, synthesis and biological evaluation of tetrazole anilides as potent inhibitors of ACAT in vitro and hypocholesterolemic agents in vivo” (Bioorg Med Chem Lett, 1995)
# pIC50: −log10 of the molar value.
# Experiments:
# [1] = test system: Rattus norvegicus; experiment: Percent change in total cholesterol in cholic acid (0.5%)-cholesterol (1.5%)-peanut oil (5.5%)-fed rats after administration of 30 mg/kg was determined.; assay type: functional
# [2] = test system: Rattus norvegicus; experiment: Percent change in total cholesterol in cholic acid (0.5%)-cholesterol (1.5%)-peanut oil (5.5%)-fed rats after administration of 30 mg/kg for 7 days was determined; assay type: functional
# [3] = test system: Rattus norvegicus; experiment: Percent change in total cholesterol in cholic acid (0.5%)-cholesterol (1.5%)-peanut oil (5.5%)-fed rats after administration of 30 mg/kg was determined; assay type: functional
# [4] = test system: Rattus norvegicus; experiment: Percent change in total cholesterol in cholic acid (0.5%)-cholesterol (1.5%)-peanut oil (5.5%)-fed rats after administration of 3 mg/kg was determined; assay type: functional
# [5] = test system: Rattus norvegicus; experiment: Percent change in total cholesterol in cholic acid (0.5%)-cholesterol (1.5%)-peanut oil (5.5%)-fed rats after administration of 10 mg/kg for 7 days was determined.; assay type: functional
# [6] = test system: Rattus norvegicus; experiment: Percent change in total cholesterol in cholic acid (0.5%)-cholesterol (1.5%)-peanut oil (5.5%)-fed rats after administration of 3 mg/kg was determined.; assay type: functional
# [7] = test system: Rattus norvegicus; experiment: Percent change in total cholesterol in cholic acid (0.5%)-cholesterol (1.5%)-peanut oil (5.5%)-fed rats after administration of 3 mg/kg for 7 days was determined.; assay type: functional
# [8] = test system: Rattus norvegicus; experiment: Percent change in total cholesterol in cholic acid (0.5%)-cholesterol (1.5%)-peanut oil (5.5%)-fed rats after administration of 10 mg/kg for 7 days was determined; assay type: functional
# [9] = test system: Rattus norvegicus; experiment: Percent change in total cholesterol in cholic acid (0.5%)-cholesterol (1.5%)-peanut oil (5.5%)-fed rats after administration of 3 mg/kg for 7 days was determined; assay type: functional
# [10] = target: T1, Sterol O-acyltransferase 1 (Rattus norvegicus, UniProt O70536); experiment: Concentration required for the in vitro inhibition of Acyl coenzyme A:cholesterol acyltransferase (ACAT) in liver microsomes isolated from cholesterol-fed rats was determined; parameters: species or system Microsome
# T1 sequence (O70536 whole entry): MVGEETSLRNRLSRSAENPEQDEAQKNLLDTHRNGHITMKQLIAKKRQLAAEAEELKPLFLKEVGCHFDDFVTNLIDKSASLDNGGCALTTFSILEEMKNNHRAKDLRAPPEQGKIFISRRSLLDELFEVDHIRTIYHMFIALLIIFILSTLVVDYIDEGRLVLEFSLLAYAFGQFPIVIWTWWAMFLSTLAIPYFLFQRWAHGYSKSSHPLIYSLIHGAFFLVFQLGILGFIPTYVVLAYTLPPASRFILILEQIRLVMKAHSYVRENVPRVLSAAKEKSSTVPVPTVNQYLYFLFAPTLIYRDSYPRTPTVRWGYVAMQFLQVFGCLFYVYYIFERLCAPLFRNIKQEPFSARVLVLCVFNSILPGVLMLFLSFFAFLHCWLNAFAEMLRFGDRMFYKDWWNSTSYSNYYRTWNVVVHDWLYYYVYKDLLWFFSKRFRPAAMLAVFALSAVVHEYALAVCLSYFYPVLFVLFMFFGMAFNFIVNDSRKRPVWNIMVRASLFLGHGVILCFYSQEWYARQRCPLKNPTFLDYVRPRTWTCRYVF
structure (smiles),measurement,setting,value
CCCCCCCCCCCCn1nnnc1C(C(=O)Nc1c(OC)cc(OC)cc1OC)c1ccccc1 (stereo not drawn),Change TC,[1],-38%
CCCCCCCCCCCCn1nnnc1C(C(=O)Nc1c(C(C)C)cccc1C(C)C)c1ccccc1 (stereo not drawn),Change TC,[2],-24%
same,Change TC,[3],-44%
CCCCCCCCCCCCn1nnc(C(C(=O)Nc2c(C(C)C)cccc2C(C)C)c2ccccc2)n1 (stereo not drawn),Change TC,[2],-38%
same,Change TC,[3],-49%
same,Change TC,[4],-46%
CCCCCCCCCCCCn1nnc(C(C(=O)Nc2c(OC)cc(OC)cc2OC)c2ccccc2)n1 (stereo not drawn),Change TC,[5],-59%
same,Change TC,[1],-63%
same,Change TC,[6],-65%
same,Change TC,[7],-23%
"CCCCCCCCCCCCn1nnc(C(C(=O)Nc2c(OC)cc(OC)cc2OC)c2ccccc2)n1 (single isomer, unassigned; (+))",Change TC,[8]; 10 mg/kg,-60%
same,Change TC,[3]; 30 mg/kg,-68%
same,Change TC,[9]; 3 mg/kg,-55%
same,Change TC,[4]; 3 mg/kg,-66%
CCCCCCCCCCCCn1nnc(C(C(=O)Nc2c(OC)cc(OC)cc2OC)c2ccccc2)n1 (stereo in doubt; 8-(-)),Change TC,[8]; 10 mg/kg,-11%
same,Change TC,[3]; 30 mg/kg,-64%
same,Change TC,[9]; 3 mg/kg,7%
same,Change TC,[4]; 3 mg/kg,-47%
same,pIC50,[10],6.48
CCCCCCCCCCC(C)(C)C(=O)Nc1c(OC)cc(OC)cc1OC [CL-976],Change TC,[8],-17%
same,Change TC,[3],-57%
same,Change TC,[9],-12%
same,Change TC,[4],-15%
